Data on 1 molecule can be found in patent US11802128B2, “Azetidine and pyrrolidine PARP1 inhibitors and uses thereof” (Xinthera, Inc., priority 2021, dated 2023).

One test has as its target PARP2 (Homo sapiens (Human), UniProt Q9UGN5). In words: Biochemical fluorescent polarization (FP) assay, displacement of PARPi-FL. Format: binding. Conditions: 20 nM protein, 3 nM PARPi-FL, 4 h at room temperature; read-out: IC50 FP PARP2. The procedure, abridged:
(§1)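 Purified PARP1 or PARP2 at 20 nM final with 3 nM PARPi-FL in 50 mM Tris pH 8.0, 0.001% Triton X-100, 10 mM MgCl2, 150 mM NaCl. Incubated 4 h at room temperature, then fluorescence polarization read; controls with and without protein.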

The target of a further test is PARP1 (Homo sapiens (Human), UniProt P09874). The test is described as above. Format: binding. Conditions: 20 nM protein, 3 nM PARPi-FL, 4 h at room temperature. In short, it runs like this:
as §1

The test system of another test is DLD-1 BRCA2(−/−) cells. The test can be described thus: Cell growth inhibition assay (CellTiter-Glo cell viability, 7 days). Format: cell-based. Conditions: Homo sapiens, 168 h. The procedure, abridged:
(§2)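 Cells were seeded at 50 (DLD-1 parental), 200 (DLD-1 BRCA2−/−) or 500 (MDA-MB-436) cells/well onto 1:3 compound dilutions, top final 10 or 30 μM. Culture ran 7 days at 37 °C, 5% CO2. ATP was read by CellTiter-Glo 2.0, and IC50 was fitted from growth inhibition.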

Test [1] has as its system MDA-MB-436 (mutated BRCA1) cells. The description is as above. Format: cell-based. Conditions: Homo sapiens, 168 h, MDA-MB-436, 7 days. In short, it runs like this: as §2
A further test relates to DLD-1 parental cells. Described as above. Format: cell-based. Conditions: Homo sapiens, 168 h. In short, it runs like this: as §2

Chain of PARP1 (P09874 whole entry): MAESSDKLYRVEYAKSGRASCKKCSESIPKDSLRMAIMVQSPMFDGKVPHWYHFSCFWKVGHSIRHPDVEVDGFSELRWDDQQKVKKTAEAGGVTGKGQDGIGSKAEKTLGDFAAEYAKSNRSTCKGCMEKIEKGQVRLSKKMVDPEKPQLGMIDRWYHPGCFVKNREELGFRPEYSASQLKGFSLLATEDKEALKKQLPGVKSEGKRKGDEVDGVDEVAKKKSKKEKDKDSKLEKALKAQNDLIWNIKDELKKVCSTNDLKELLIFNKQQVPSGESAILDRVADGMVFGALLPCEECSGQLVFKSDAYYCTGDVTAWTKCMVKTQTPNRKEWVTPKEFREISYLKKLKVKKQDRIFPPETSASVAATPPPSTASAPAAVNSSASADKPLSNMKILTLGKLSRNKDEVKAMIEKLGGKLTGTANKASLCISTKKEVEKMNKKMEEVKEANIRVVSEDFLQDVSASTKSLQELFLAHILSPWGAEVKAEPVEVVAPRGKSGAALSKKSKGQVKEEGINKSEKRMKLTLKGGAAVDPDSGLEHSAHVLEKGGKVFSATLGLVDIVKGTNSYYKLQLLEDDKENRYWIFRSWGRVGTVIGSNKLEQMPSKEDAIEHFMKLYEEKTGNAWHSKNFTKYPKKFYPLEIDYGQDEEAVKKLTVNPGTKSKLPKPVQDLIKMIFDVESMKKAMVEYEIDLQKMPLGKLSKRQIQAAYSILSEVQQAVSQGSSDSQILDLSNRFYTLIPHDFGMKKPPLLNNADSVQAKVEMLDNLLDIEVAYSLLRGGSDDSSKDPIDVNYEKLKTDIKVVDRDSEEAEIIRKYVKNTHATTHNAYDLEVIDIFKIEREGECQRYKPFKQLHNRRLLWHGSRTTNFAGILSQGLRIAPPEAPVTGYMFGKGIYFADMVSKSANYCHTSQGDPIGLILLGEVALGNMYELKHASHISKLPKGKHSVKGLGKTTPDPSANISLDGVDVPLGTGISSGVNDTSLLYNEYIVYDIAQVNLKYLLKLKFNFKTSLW
Chain of PARP2 (Q9UGN5 whole entry): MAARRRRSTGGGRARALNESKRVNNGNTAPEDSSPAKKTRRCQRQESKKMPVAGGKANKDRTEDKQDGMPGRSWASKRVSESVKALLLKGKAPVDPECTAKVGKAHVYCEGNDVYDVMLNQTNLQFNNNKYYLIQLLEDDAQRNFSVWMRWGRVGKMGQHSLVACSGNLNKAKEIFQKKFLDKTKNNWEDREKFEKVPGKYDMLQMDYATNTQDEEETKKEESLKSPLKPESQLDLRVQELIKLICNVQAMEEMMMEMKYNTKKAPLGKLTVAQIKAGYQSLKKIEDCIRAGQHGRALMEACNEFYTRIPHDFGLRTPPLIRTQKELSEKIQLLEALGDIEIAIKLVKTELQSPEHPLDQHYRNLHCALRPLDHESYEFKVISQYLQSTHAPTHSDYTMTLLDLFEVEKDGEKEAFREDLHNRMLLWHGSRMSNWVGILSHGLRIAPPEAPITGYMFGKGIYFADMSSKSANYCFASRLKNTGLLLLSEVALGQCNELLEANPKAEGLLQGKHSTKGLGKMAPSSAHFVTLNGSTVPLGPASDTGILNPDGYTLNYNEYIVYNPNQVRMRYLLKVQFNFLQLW

As usually defined, the IC50 is the midpoint of a concentration-inhibition curve. As a reminder, the EC50 is the concentration at which the effect is half-maximal. Turning to `CCc1cc2ncc(CN3CC[C@@H](Oc4ccc(C(=O)NC)nc4)C3)cc2[nH]c1=O` [Example 2, 5-{[(3R)-1-[(7-ethyl-6-oxo-5H-1,5-naphthyridin-3-yl)methyl]pyrrolidin-3-yl]oxy}-N-methylpyridine-2-carboxamide], the IC50 at PARP2 was greater than 10000 nM; at PARP1 it was 4.2 nM. Besides, the EC50 in the test with DLD-1 BRCA2(−/−) cells was 3.3 nM; in test [1], 1.6 nM; in the test with DLD-1 parental cells it was greater than 30000 nM.
